BindingDB's records for doi:10.1021/jm0704898 (Georgetown University Medical Center, 2007)

Legend:
Prothrombin = Prothrombin (Bos taurus, UniProt P00735); assay: Enzyme Inhibition Assay; settings: pH 8.5; 22 °C
Procedure: (§1) The enzyme reaction was initiated by adding fluorescence peptide substrate to reaction mixture containing enzyme and test compounds. […] Hydrolysis rates were recorded in presence of six to seven different concentrations of inhibitor.

[1] = target: T1, Suppressor of tumorigenicity 14 protein (Homo sapiens, UniProt Q9Y5Y6); assay: Enzyme Inhibition Assay; settings: pH 8.5; 22 °C
T1 sequence (Q9Y5Y6 whole entry): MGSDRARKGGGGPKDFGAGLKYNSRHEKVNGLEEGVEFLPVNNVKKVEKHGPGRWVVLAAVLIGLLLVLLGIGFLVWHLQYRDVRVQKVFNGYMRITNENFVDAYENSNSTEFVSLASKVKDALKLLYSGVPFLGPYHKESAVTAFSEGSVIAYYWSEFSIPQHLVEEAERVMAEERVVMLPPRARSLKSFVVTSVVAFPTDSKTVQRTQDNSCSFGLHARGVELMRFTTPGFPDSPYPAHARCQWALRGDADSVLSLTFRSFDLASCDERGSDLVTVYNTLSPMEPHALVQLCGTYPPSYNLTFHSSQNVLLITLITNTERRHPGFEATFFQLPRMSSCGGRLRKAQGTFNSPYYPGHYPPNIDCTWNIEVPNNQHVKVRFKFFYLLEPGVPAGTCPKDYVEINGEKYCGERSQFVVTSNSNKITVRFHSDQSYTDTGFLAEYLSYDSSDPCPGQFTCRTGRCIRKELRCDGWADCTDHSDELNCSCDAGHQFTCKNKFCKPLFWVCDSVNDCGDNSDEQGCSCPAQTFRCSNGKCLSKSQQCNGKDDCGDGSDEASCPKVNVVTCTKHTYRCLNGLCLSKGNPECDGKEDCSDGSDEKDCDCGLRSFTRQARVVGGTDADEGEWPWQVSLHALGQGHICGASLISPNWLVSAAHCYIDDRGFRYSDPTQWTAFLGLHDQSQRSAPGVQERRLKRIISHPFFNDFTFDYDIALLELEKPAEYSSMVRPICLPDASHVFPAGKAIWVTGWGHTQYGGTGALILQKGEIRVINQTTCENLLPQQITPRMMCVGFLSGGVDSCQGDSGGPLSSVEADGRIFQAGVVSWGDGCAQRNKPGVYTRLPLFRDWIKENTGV
Procedure: as §1

SMILES | Ki (Prothrombin) [nM] | Ki [1] [nM]
CC[C@H](C)[C@@H]1NC(=O)[C@@H]2CCCN2C(=O)[C@@H]2CCCN2C(=O)[C@H]([C@@H](C)CC)NC(=O)[C@H](CO)NC(=O)[C@H](CCCCN)NC(=O)[C@H]([C@@H](C)O)NC(=O)[C@@H]2CSSC[C@H](NC1=O)C(=O)N[C@@H](Cc1c(F)c(F)c(F)c(F)c1F)C(=O)N1CCC[C@H]1C(=O)N[C@@H](CC(=O)O)C(=O)NCC(=O)N[C@@H](CCCN=C(N)N)C(=O)N2 | 33600 | 890
CC[C@H](C)[C@@H]1NC(=O)[C@@H]2CCCN2C(=O)[C@@H]2CCCN2C(=O)[C@H]([C@@H](C)CC)NC(=O)[C@H](CO)NC(=O)[C@H](CCCN)NC(=O)[C@H]([C@@H](C)O)NC(=O)[C@@H]2CSSC[C@H](NC1=O)C(=O)N[C@@H](Cc1ccccc1)C(=O)N1CCC[C@H]1C(=O)N[C@@H](CC(=O)O)C(=O)NCC(=O)N[C@@H](CCCN=C(N)N)C(=O)N2 [2-[(1R,4S,7S,13S,19S,22S,25S,28S,31R,34S,40S,43S,49S)-25-(3-aminopropyl)-49-benzyl-4,19-bis[(2S)-butan-2-yl]-34-(3-carbamimidamidopropyl)-28-[(1R)-1-hydroxyethyl]-22-(hydroxymethyl)-3,6,12,18,21,24,27,30,33,36,39,42,48,51-tetradecaoxo-53,54-dithia-2,5,11,17,20,23,26,29,32,35,38,41,47,50-tetradecaazapentacyclo[29.20.4.0^{7,11}.0^{13,17}.0^{43,47}]pentapentacontan-40-yl]acetic acid] | – | > 250000
CC[C@H](C)[C@@H]1NC(=O)[C@@H]2CCCN2C(=O)[C@@H]2CCCN2C(=O)[C@H]([C@@H](C)CC)NC(=O)[C@H](CO)NC(=O)[C@H](CCCCN)NC(=O)[C@H]([C@@H](C)O)NC(=O)[C@@H]2CSSC[C@H](NC1=O)C(=O)N[C@@H](Cc1ccc(-c3ccccc3)cc1)C(=O)N1CCC[C@H]1C(=O)N[C@@H](CC(=O)O)C(=O)NCC(=O)N[C@@H](CCCN=C(N)N)C(=O)N2 [2-[(1R,4S,7S,13S,19S,22S,25S,28S,31R,34S,40S,43S,49S)-25-(4-aminobutyl)-4,19-bis[(2S)-butan-2-yl]-34-(3-carbamimidamidopropyl)-28-[(1R)-1-hydroxyethyl]-22-(hydroxymethyl)-3,6,12,18,21,24,27,30,33,36,39,42,48,51-tetradecaoxo-49-[(4-phenylphenyl)methyl]-53,54-dithia-2,5,11,17,20,23,26,29,32,35,38,41,47,50-tetradecaazapentacyclo[29.20.4.0^{7,11}.0^{13,17}.0^{43,47}]pentapentacontan-40-yl]acetic acid] | 25600 | 1000

Further lines, results first:

Ki (Prothrombin) [nM] | Ki [1] [nM] | SMILES
16300 | 450 | CC[C@H](C)[C@@H]1NC(=O)[C@@H]2CCCN2C(=O)[C@@H]2CCCN2C(=O)[C@H]([C@@H](C)CC)NC(=O)[C@H](CO)NC(=O)[C@H](CCCCN)NC(=O)[C@H]([C@@H](C)O)NC(=O)[C@@H]2CSSC[C@H](NC1=O)C(=O)N[C@@H](Cc1ccc3ccccc3c1)C(=O)N1CCC[C@H]1C(=O)N[C@@H](CC(=O)O)C(=O)NCC(=O)N[C@@H](CCCN=C(N)N)C(=O)N2 [2-[(1R,4S,7S,13S,19S,22S,25S,28S,31R,34S,40S,43S,49S)-25-(4-aminobutyl)-4,19-bis[(2S)-butan-2-yl]-34-(3-carbamimidamidopropyl)-28-[(1R)-1-hydroxyethyl]-22-(hydroxymethyl)-49-(naphthalen-2-ylmethyl)-3,6,12,18,21,24,27,30,33,36,39,42,48,51-tetradecaoxo-53,54-dithia-2,5,11,17,20,23,26,29,32,35,38,41,47,50-tetradecaazapentacyclo[29.20.4.0^{7,11}.0^{13,17}.0^{43,47}]pentapentacontan-40-yl]acetic acid]
– | 100 | CC[C@H](C)[C@@H]1NC(=O)[C@@H]2CCCN2C(=O)[C@@H]2CCCN2C(=O)[C@H]([C@@H](C)CC)NC(=O)[C@H](CO)NC(=O)[C@H](CCCCN)NC(=O)[C@H]([C@@H](C)O)NC(=O)[C@@H]2CSSC[C@H](NC1=O)C(=O)N[C@@H](Cc1ccccc1)C(=O)N1CCC[C@H]1C(=O)N[C@@H](CC(=O)O)C(=O)NCC(=O)N[C@@H](CCCNC(=N)N)C(=O)N2 [2-[(1R,4S,7S,13S,19S,22S,25S,28S,31R,34S,40S,43S,49S)-25-(4-aminobutyl)-49-benzyl-4,19-bis[(2S)-butan-2-yl]-34-(3-carbamimidamidopropyl)-28-[(1R)-1-hydroxyethyl]-22-(hydroxymethyl)-3,6,12,18,21,24,27,30,33,36,39,42,48,51-tetradecaoxo-53,54-dithia-2,5,11,17,20,23,26,29,32,35,38,41,47,50-tetradecaazapentacyclo[29.20.4.0^{7,11}.0^{13,17}.0^{43,47}]pentapentacontan-40-yl]acetic acid]
10000 | 160 | CC[C@H](C)[C@@H]1NC(=O)[C@@H]2CCCN2C(=O)[C@@H]2CCCN2C(=O)[C@H]([C@@H](C)CC)NC(=O)[C@H](CO)NC(=O)[C@H](CCCCN)NC(=O)[C@H]([C@@H](C)O)NC(=O)[C@@H]2CSCSC[C@H](NC1=O)C(=O)N[C@@H](Cc1ccccc1)C(=O)N1CCC[C@H]1C(=O)N[C@@H](CC(=O)O)C(=O)NCC(=O)N[C@@H](CCCN=C(N)N)C(=O)N2 [2-[(1R,4S,7S,13S,19S,22S,25S,28S,31R,34S,40S,43S,49S)-25-(4-aminobutyl)-49-benzyl-4,19-bis[(2S)-butan-2-yl]-34-(3-carbamimidamidopropyl)-28-[(1R)-1-hydroxyethyl]-22-(hydroxymethyl)-3,6,12,18,21,24,27,30,33,36,39,42,48,51-tetradecaoxo-53,55-dithia-2,5,11,17,20,23,26,29,32,35,38,41,47,50-tetradecaazapentacyclo[29.20.5.0^{7,11}.0^{13,17}.0^{43,47}]hexapentacontan-40-yl]acetic acid]
– | 380 | CC[C@H](C)[C@@H]1NC(=O)[C@@H]2CCCN2C(=O)[C@@H]2CCCN2C(=O)[C@H]([C@@H](C)CC)NC(=O)[C@H](CO)NC(=O)[C@H](CCCCN)NC(=O)[C@H]([C@@H](C)O)NC(=O)[C@@H]2CCSSC[C@H](NC1=O)C(=O)N[C@@H](Cc1ccccc1)C(=O)N1CCC[C@H]1C(=O)N[C@@H](CC(=O)O)C(=O)NCC(=O)N[C@@H](CCCN=C(N)N)C(=O)N2 [2-[(1R,4S,7S,13S,19S,22S,25S,28S,31S,34S,40S,43S,49S)-25-(4-aminobutyl)-49-benzyl-4,19-bis[(2S)-butan-2-yl]-34-(3-carbamimidamidopropyl)-28-[(1R)-1-hydroxyethyl]-22-(hydroxymethyl)-3,6,12,18,21,24,27,30,33,36,39,42,48,51-tetradecaoxo-53,54-dithia-2,5,11,17,20,23,26,29,32,35,38,41,47,50-tetradecaazapentacyclo[29.20.5.0^{7,11}.0^{13,17}.0^{43,47}]hexapentacontan-40-yl]acetic acid]
